In patent US10266537B2, “3-acetylenyl-pyrazole-pyrimidine derivative, and preparation method therefor and uses thereof” (Si Chuan University, priority 2015, dated 2019):
Read-outs that look alike come from different tables or passages of the source.

Key:
[1] = system: MDA-MB-435; assay: Cell proliferation inhibition assay (MTT); type: cell-based, human; details: Homo sapiens, read-out: Proliferative inhibitory activity MDA-MB-435 (IC50 class)
[2] = system: MDA-MB-231; assay: Cell proliferation inhibition assay (MTT); type: cell-based, human; details: Homo sapiens, read-out: Proliferative inhibitory activity MDA-MB-231 (IC50 class)

| Structure (SMILES) | IC50 ([1]; MDA-MB-435, MTT, 72 hours) [nM] | IC50 ([2]; MDA-MB-231, MTT, 72 hours) [nM] | IC50 ([1]; MDA-MB-435, 72 h) [nM] | IC50 ([2]; MDA-MB-231, 72 h) [nM] |
| --- | --- | --- | --- | --- |
| CN1CCC(n2nc(C#Cc3cc(NC(=O)c4cccc(C(F)(F)F)c4)ccc3Cl)c3c(N)ncnc32)CC1 [Compound 34] | 100 to 500 | 500 to 1000 | – | – |
| Cc1ccc(NC(=O)c2ccc(F)c(C(F)(F)F)c2)cc1C#Cc1nn(C2CCN(C)CC2)c2ncnc(N)c12 [Compound 47] | 500 to 1000 | 500 to 1000 | – | – |
| Cc1ccc(NC(=O)c2cc(Cl)cc(Cl)c2)cc1C#Cc1nn(C2CCN(C)CC2)c2ncnc(N)c12 [Compound 68] | 100 to 500 | 100 to 500 | – | – |
| CN1CCC(n2nc(C#Cc3cccc(NC(=O)c4cccc(C(F)(F)F)c4)c3)c3c(N)ncnc32)CC1 [Compound 33] | 100 to 500 | 500 to 1000 | – | – |
| Cc1ccc(C(=O)Nc2cccc(C(F)(F)F)c2)cc1C#Cc1nn([C@@H]2CCN(C)C2)c2ncnc(N)c12 [Compound 107] | < 100 | < 100 | – | – |
| Cc1ccc(NC(=O)c2ccc(Cl)c(C(F)(F)F)c2)cc1C#Cc1nn(CC2CCN(C)C2)c2ncnc(N)c12 (centres unmarked) [Compound 69] | > 1000 | < 100 | – | – |
| CN1CCC(n2nc(C#Cc3cc(NC(=O)Nc4cccc(C(F)(F)F)c4)ccc3Cl)c3c(N)ncnc32)CC1 [Compound 36] | 100 to 500 | 500 to 1000 | – | – |
| Cc1ccc(NC(=O)c2nc(C(C)(C)C)cs2)cc1C#Cc1nn(C2CCN(C)CC2)c2ncnc(N)c12 [Compound 65] | < 100 | < 100 | – | – |
| Cc1ccc(NC(=O)c2ccc(C)c(C(F)(F)F)c2)cc1C#Cc1nn(C2CCN(C)CC2)c2ncnc(N)c12 [Compound 42] | < 100 | < 100 | – | – |
| Cc1ccc(C(=O)Nc2cc(C(C)(C)C)on2)cc1C#Cc1nn(C2CCN(C)CC2)c2ncnc(N)c12 [Compound 62] | < 100 | < 100 | – | – |
| Cc1ccc(NC(=O)c2cccc(C(C)(C)C)c2)cc1C#Cc1nn(C2CCN(C)CC2)c2ncnc(N)c12 [Compound 40] | < 100 | < 100 | – | – |
| Cc1ccc(NC(=O)c2ccc(Cl)c(C(F)(F)F)c2)cc1C#Cc1nn(C2CCN(S(C)(=O)=O)CC2)c2ncnc(N)c12 [Compound 81] | 100 to 500 | < 100 | – | – |
| Cc1ccc(NC(=O)c2cc(C(C)(C)C)on2)cc1C#Cc1nn(C2CCN(C)CC2)c2ncnc(N)c12 [Compound 64] | < 100 | 100 to 500 | – | – |
| Cc1ccc(NC(=O)c2ccc(Cl)c(C(F)(F)F)c2)cc1C#Cc1nn(C2CCCC2)c2ncnc(N)c12 [Compound 78] | 500 to 1000 | < 100 | – | – |
| Cc1ccc(NC(=O)c2ccc(Cl)c(C(F)(F)F)c2)cc1C#Cc1nn([C@@H]2CCN(C(=O)[C@H](C)O)C2)c2ncnc(N)c12 [Compound 72] | > 1000 | < 100 | – | – |
| Cc1ccc(NC(=O)c2ccc(Cl)c(C(F)(F)F)c2)cc1C#Cc1nn([C@@H]2CCCN(C)C2)c2ncnc(N)c12 [Compound 89] | 100 to 500 | < 100 | – | – |
| Cc1ccc(NC(=O)c2ccc(Cl)c(C(F)(F)F)c2)cc1C#Cc1nn(CC2CCN(C)CC2)c2ncnc(N)c12 [Compound 79] | 500 to 1000 | < 100 | – | – |
| Cc1ccc(C(=O)Nc2cc(C(C)(C)C)nn2C)cc1C#Cc1nn(C2CCN(C)CC2)c2ncnc(N)c12 [Compound 61] | 100 to 500 | 100 to 500 | – | – |
| CC(=O)Nc1ncnc2c1c(C#Cc1cc(C(=O)Nc3ccc(CN4CCN(C)CC4)c(C(F)(F)F)c3)ccc1C)nn2C(C)C [Compound 15] | 100 to 500 | 100 to 500 | – | – |
| CCn1nc(C#Cc2cc(C(=O)Nc3ccc(CN4CCN(C)CC4)c(C(F)(F)F)c3)ccc2C)c2c(N)ncnc21 [Compound 2] | < 100 | < 100 | – | – |
| Cc1ccc(C(=O)Nc2ccc(CN3CCN(C)CC3)c(C(F)(F)F)c2)cc1C#Cc1nn([C@H]2CCOC2)c2ncnc(N)c12 [Compound 21] | – | – | < 100 | < 100 |
| Cc1ccc(C(=O)Nc2cccc(C(F)(F)F)c2)cc1C#Cc1nn(C[C@@H](C)CO)c2ncnc(N)c12 [Compound 105] | 100 to 500 | < 100 | – | – |
| Cc1ccc(C(=O)Nc2cccc(C(F)(F)F)c2)cc1C#Cc1nn(CC2CCN(C)C2)c2ncnc(N)c12 (centres unmarked) [Compound 108] | 100 to 500 | < 100 | – | – |
| Cc1ccc(NC(=O)c2ccc(Cl)c(C(F)(F)F)c2)cc1C#Cc1nn([C@@H]2CCN(C(=O)[C@@H](C)O)C2)c2ncnc(N)c12 [Compound 73] | > 1000 | < 100 | – | – |
| Cc1ccc(NC(=O)c2ccc(C)c(C(F)(F)F)c2)cc1C#Cc1nn([C@@H]2CCN(C)C2)c2ncnc(N)c12 [Compound 116] | 100 to 500 | 100 to 500 | – | – |
| Cc1ccc(NC(=O)c2ccc(Cl)c(C(F)(F)F)c2)cc1C#Cc1nn(CC(=O)N2CCOCC2)c2ncnc(N)c12 [Compound 80] | > 1000 | < 100 | – | – |
| CCNc1ncnc2c1c(C#Cc1cc(C(=O)Nc3cccc(C(F)(F)F)c3)ccc1C)nn2CC [Compound 104] | 100 to 500 | 100 to 500 | – | – |
| Cc1cccc(C(=O)Nc2ccc(C)c(C#Cc3nn(C4CCN(C)CC4)c4ncnc(N)c34)c2)c1 [Compound 55] | 100 to 500 | 100 to 500 | – | – |
